Laboratory results: patent US7601754B2, “Flavonoid compounds as therapeutic antioxidants” (Antoxis Limited, priority 2002, dated 2009)
Values joined by “and” are separate entries in the source; they are usually repeats but may differ in a detail not shown here. Equal entries are not always repeated.

Assays:
[1] = Kinetic measurements: stopped-flow ESR, reduction of galvinoxyl radical; assay type: physicochemical; settings: for Second order rate constants (k2) for the reduction of galvinoxyl radical / reactivity with galvinoxyl (in words): ethanol; for Second order rate constants (k2) for the reduction of galvinoxyl radical: 20° C.±2° C., flavonoid 0.2 mM + galvinoxyl 0.2 mM, unit printed only in b437; for decrease in rate of reaction with galvinoxyl relative to quercetin: fold decrease, versus quercetin; for reactivity with galvinoxyl (in words): kinetics of reduction
Protocol: (§1) Within a biological system where a number of polyphenols may be present at similar concentrations, antioxidant efficacy may be predominantly governed by reaction kinetics rather than stoichiornetry. Consequently, the antioxidant potential of thirteen flavonoids and vitamin E were assessed and their kinetic and stochiometric reduction of a synthetic radical using stopped-flow electron spin resonance (ESR) spectroscopy has been compared. The radical used was galvinoxyl (Galv-O°), (2,6-di-tert-butyl-α-(3,5-di-tert-butyl-4-oxo-2,5-cyclohexadien-1-ylidene)-p-tolyloxy) shown below:
Galv-O°+Phenol-OH≈Galv-OH+phenol-O°
The process is governed by the O—H bond dissociation enthalpy of the donor.
Ethanolic solutions of flavonoid (0.2 mM) and galvinoxyl (0.2 mM) were de-oxygenated under a stream of nitrogen gas. Aliquots (6 ml) were transferred to Hamilton gas-tight syringes (10 ml) coupled to a pneumatic ram and connected to a two-stream ESR quartz flow-cell. In situ reaction at 20° C.±2° C. between the flavonoid and galvinoxyl was initiated by rapidly evacuating the syringes. […] Decay curves were obtained by operating in timesweep mode with the static field set at the resonance maximum of the galvinoxyl signal.

[2] = Stoichiometric measurements: ESR, reduction of excess galvinoxyl radical; assay type: physicochemical; settings: galvinoxyl radicals reduced per molecule, ethanol, flavonoid 0.1 mM + galvinoxyl 0.5 mM, 5 minutes from mixing
Protocol: as §1
Ethanolic solutions of flavonoids (0.1 mM) were prepared. Aliquots (3 ml) of an ethanolic galvinoxyl solution (0.5 mM) were mixed with an equal volume of flavonoid solution then transferred to an ESR quartz cell. The spectra and reaction stoichiometry were evaluated. In brief, the spectra of the unreacted galvinoxyl were obtained 5 minutes from mixing, by which time equilibration was complete. The galvinoxyl concentrations remaining were calculated by double integration of the signal and comparing with the control experiment where ethanol was added to the galvinoxyl solution instead of flavonoid solution.
The stoichiometry of the reaction of these compounds with the galvinoxyl free radical was determined by adding the flavonoid, or vitamin E, to an excess of the radical and allowing the reaction to proceed to the endpoint.

[3] = tested on: rat liver microsomes from vitamin E-deficient rats; test: Inhibition of TBARS production in rat liver microsomes from vitamin E-deficient rats; assay type: biochemical; settings: for TBARS production (Mean): after 20 minutes incubation with Fe(II)-ADP/ascorbate, normalised to a tocopherol reading of 20, 30 minutes pre-incubation, higher reading = lower protection; for membrane protection against TBARS production (in words): over the 20 minute oxidation period
Protocol: Inhibition of TBARS production in rat liver microsomes from vitamin E-deficient rats by pre-incubation with target antioxidant and related compounds. Microsomes are subcellular fractions containing membrane fragments. In vitamin E-deficient rats, microsomes are especially prone to oxidative free radical damage. This can be quantified in terms of the production of thiobarbituric acid reactive substances (TBARS) which result from radical-mediated destruction of the polyunsaturated fatty acid constituents. Consequently, this is a useful biological model to determine the efficacy of phytochemicals as antioxidant membrane protectants. Vitamin E-deficient microsomal suspensions were incubated for 30 minutes with one of myricetin, sample A, sample B, sample C (as shown below) or d-alpha-tocopherol, or with a compound 9c, 9d, 9e, 9e*, 9f, 9g, 9g*, 9h, 9i* or 9j (prepared as described above in Examples 1 to 10). […] TBARS production was then measured by HPLC.

Solubility in octanol = assay type: physicochemical

O=C1c2c(O)cc(O)cc2O[C@H](c2ccc(O)c(O)c2)[C@H]1O (racemic) [Taxifolin]
Second order rate constants (k2) for the reduction of galvinoxyl radical [1]: 337 ± 32 mol^−1 dm^3 s^−1 | decrease in rate of reaction with galvinoxyl relative to quercetin [1]: 7 fold | reduction in rate compared with catechin ([1]; fold reduction, versus catechin): 5 fold | Reaction Stoichiometry for the reduction of galvinoxyl radical [2]: 2.82 ± 0.05 | Reaction Stoichiometry for the reduction of galvinoxyl radical ([2]; listed as taxifolin): 2.8

CCCCc1ccc2c(=O)c(O)c(-c3cc(O)c(O)c(O)c3)oc2c1 [9d, 7-Butyl-3-hydroxy-2-(3,4,5-trihydroxy-phenyl)-chromen-4-one]
TBARS production (Mean) [3]: 121.743

CCCCCCCCc1ccc2c(=O)c(O)c(-c3cc(O)c(O)c(O)c3)oc2c1 [9f, 7-Octyl-3-hydroxy-2-(3,4,5-trihydroxy-phenyl)-chromen-4-one]
TBARS production (Mean) [3]: 46.1879

O=c1c(O)c(-c2cc(O)c(O)c(O)c2)oc2cc(O)ccc12 [Control A]
TBARS production (Mean) [3]: 158.348

O=c1c(O)c(-c2cc(O)c(O)c(O)c2)oc2ccccc12 [Control B]
antioxidant activity by ESR (in words) ([1]; ESR, kinetic or stoichiometric not stated): retains potent antioxidant activity | TBARS production (Mean) [3]: 236.525 and 236.5249 | membrane protection against TBARS production (in words) [3]: does not give rise to significant membrane protective effects | solubility in octanol (in words) (Solubility in octanol): very soluble in octanol

O=c1c(O)c(-c2cc(O)c(O)cc2O)oc2ccccc12 [Control C]
TBARS production (Mean) [3]: 186.6221

O=c1c(O)c(-c2ccc(O)c(O)c2O)oc2ccccc12 [Control D]
TBARS production (Mean) [3]: 172.0899

O=c1c(O)c(-c2ccccc2O)oc2cc(O)cc(O)c12 [Datiscetin]
Second order rate constants (k2) for the reduction of galvinoxyl radical [1]: 22 ± 2 mol^−1 dm^3 s^−1 | Second order rate constants (k2) for the reduction of galvinoxyl radical ([1]; listed as datiscetin): 22 mol^−1 dm^3 s^−1 | reduction in rate constant relative to kaempferol ([1]; fold reduction, versus kaempferol): 56 fold | Reaction Stoichiometry for the reduction of galvinoxyl radical [2]: 1.74 ± 0.02 | Reaction Stoichiometry for the reduction of galvinoxyl radical ([2]; listed as datiscetin): ~1.8

O=c1c(O)c(-c2ccc(O)c(O)c2)oc2cc(O)ccc12 [Fisetin]
Second order rate constants (k2) for the reduction of galvinoxyl radical [1]: 1623 ± 199 mol^−1 dm^3 s^−1 | Reaction Stoichiometry for the reduction of galvinoxyl radical [2]: 3.68 ± 0.03

O=c1c(O)c(-c2ccccc2)oc2cc(O)cc(O)c12 [Galangin]
Second order rate constants (k2) for the reduction of galvinoxyl radical [1]: 18 ± 1 mol^−1 dm^3 s^−1 | reactivity with galvinoxyl (in words) [1]: reacted only very slowly | Reaction Stoichiometry for the reduction of galvinoxyl radical [2]: 1.01 ± 0.03

COc1ccc([C@@H]2CC(=O)c3c(O)cc(O)cc3O2)cc1O [Hesperitin]
Second order rate constants (k2) for the reduction of galvinoxyl radical [1]: 6 ± 0.5 mol^−1 dm^3 s^−1 | reactivity with galvinoxyl (in words) [1]: little reactivity | Reaction Stoichiometry for the reduction of galvinoxyl radical [2]: 0.20 ± 0.02

O=c1cc(-c2ccc(O)c(O)c2)oc2cc(O)cc(O)c12 [Luteolin]
Second order rate constants (k2) for the reduction of galvinoxyl radical [1]: 1212 ± 45 mol^−1 dm^3 s^−1 | Reaction Stoichiometry for the reduction of galvinoxyl radical [2]: 3.24 ± 0.01

O=c1c(O)c(-c2ccc(O)cc2O)oc2cc(O)cc(O)c12 [Morin]
Second order rate constants (k2) for the reduction of galvinoxyl radical [1]: 10134 ± 459 mol^−1 dm^3 s^−1 | Second order rate constants (k2) for the reduction of galvinoxyl radical ([1]; listed as morin): 10134 mol^−1 dm^3 s^−1 | reactivity with galvinoxyl (in words) [1]: fastest | increase in rate relative to kaempferol ([1]; fold increase, versus kaempferol): 8 fold | Reaction Stoichiometry for the reduction of galvinoxyl radical [2]: 1.83 ± 0.01 | Reaction Stoichiometry for the reduction of galvinoxyl radical ([2]; listed as morin): 1.8

O=c1c(O)c(-c2cc(O)c(O)c(O)c2)oc2cc(O)cc(O)c12 [Myricetin]
Second order rate constants (k2) for the reduction of galvinoxyl radical [1]: 14463 ± 1767 mol^−1 dm^3 s^−1 | reactivity with galvinoxyl (in words) [1]: fastest | Reaction Stoichiometry for the reduction of galvinoxyl radical [2]: 4.08 ± 0.01 | Reaction Stoichiometry for the reduction of galvinoxyl radical ([2]; listed as myricetin): 4.1 | TBARS production (Mean) [3]: 147.6 and 147.6306 | membrane protection against TBARS production (in words) [3]: almost no protection

O=c1c(O)c(-c2ccc(O)c(O)c2)oc2cc(O)cc(O)c12 [Quercetin]
Second order rate constants (k2) for the reduction of galvinoxyl radical [1]: 2383 ± 258 mol^−1 dm^3 s^−1 | change of rate constant compared with luteolin (in words) ([1]; versus luteolin): doubling | Reaction Stoichiometry for the reduction of galvinoxyl radical [2]: 3.27 ± 0.04 | Reaction Stoichiometry for the reduction of galvinoxyl radical ([2]; listed as quercetin): 3.3

COc1ccc(-c2oc3cc(O)cc(O)c3c(=O)c2O)cc1O [Tamarixetin]
Second order rate constants (k2) for the reduction of galvinoxyl radical [1]: 165 ± 20 mol^−1 dm^3 s^−1 | decrease in rate of reaction with galvinoxyl relative to quercetin [1]: 15 fold | Reaction Stoichiometry for the reduction of galvinoxyl radical [2]: 1.14 ± 0.03

COc1cc(-c2oc3cc(O)cc(O)c3c(=O)c2O)cc(OC)c1OC [Tri-Ome-Myricetin, myricetin-3′,4′,5′-trimethylether]
Second order rate constants (k2) for the reduction of galvinoxyl radical [1]: 74 ± 14 mol^−1 dm^3 s^−1 | Reaction Stoichiometry for the reduction of galvinoxyl radical [2]: 1.06 ± 0.02

Cc1c(C)c2c(c(C)c1O)CC[C@@](C)(CCC[C@H](C)CCC[C@H](C)CCCC(C)C)O2 [Vitamin E, d-(2R,4′R,8′R)-α-Tocopherol]
Second order rate constants (k2) for the reduction of galvinoxyl radical [1]: 524 ± 48 mol^−1 dm^3 s^−1 | Reaction Stoichiometry for the reduction of galvinoxyl radical [2]: 2.14 ± 0.12 | TBARS production (Mean) ([3]; listed as da-toc): 19.9996 and 20

CCc1ccc2c(=O)c(O)c(-c3cc(O)c(O)c(O)c3)oc2c1 [compound 9c, 7-Ethyl-3-hydroxy-2-(3,4,5-trihydroxy-phenyl)-chromen-4-one]
TBARS production (Mean) [3]: 117.461

CCCCCCCCCCCCc1ccc2c(=O)c(O)c(-c3cc(O)c(O)c(O)c3)oc2c1 [compound 9h, 3-Hydroxy-2-(3,4,5-trihydroxy-phenyl)-7-dodecyl-chromen-4-one]
TBARS production (Mean) [3]: 62.1021

CC(C)CCCC(C)CCCC(C)CCc1ccc2c(=O)c(O)c(-c3cc(O)c(O)c(O)c3)oc2c1 (stereo not shown) [compound 9i*, 3-Hydroxy-2-(3,4,5-trihydroxy-phenyl)-7-(3,7,11-trimethyl-dodecyl)-chromen-4-one]
TBARS production (Mean) [3]: 32.9769

CCCCCCCCCCCCCCCCCCc1ccc2c(=O)c(O)c(-c3cc(O)c(O)c(O)c3)oc2c1 [compound 9j, 3-Hydroxy-7-octadecyl-2-(3,4,5-trihydroxy-phenyl)-chromen-4-one]
TBARS production (Mean) [3]: 107.849

CCCCCCCCCCc1ccc2oc(-c3cc(O)c(O)c(O)c3)c(O)c(=O)c2c1 [compound 11g, 6-Decyl-3-hydroxy-2-(3,4,5-trihydroxy-phenyl)-chromen-4-one]
TBARS production (Mean) [3]: 81.82

CCCCCCCCc1cc2c(=O)c(O)c(-c3cc(O)c(O)c(O)c3)oc2cc1CC [compound 12, 7-Ethyl-3-hydroxy-6-octyl-2-(3,4,5-trihydroxy-phenyl)-chromen-4-one]
TBARS production (Mean) [3]: 53.98

CCCCCCCCCCc1ccc2c(=O)c(O)c(-c3cc(O)c(O)cc3O)oc2c1 [compound 13g, 3,2′,4′,5′-tetrahydroxy-7-decyl-flavone]
TBARS production (Mean) [3]: 20.1401 | membrane protection against TBARS production (in words) [3]: good membrane protection

CCCCCCCCCc1cccc2c(=O)c(O)c(-c3cc(O)c(O)cc3O)oc12 [compound 14]
TBARS production (Mean) [3]: 104.4307

Catechin
Second order rate constants (k2) for the reduction of galvinoxyl radical [1]: 1574 ± 79 mol^−1 dm^3 s^−1 | Reaction Stoichiometry for the reduction of galvinoxyl radical [2]: 2.96 ± 0.01
